Assay results published in BindingDB's records for doi:10.1111/cbdd.12243 (Shandong Institute of Pharmaceutical Industry, 2014).

How the values were obtained:
Assay in all cases: Z-LYTE biochemical assay
Conditions in all cases: 25 °C
[1] = biological target: Vascular endothelial growth factor receptor 2 (Homo sapiens, UniProt P35968)
Experimental: (§1) The reaction was stopped by the addition of 5 µL stop reagent.

[2] = biological target: Tyrosine-protein kinase ABL1 (Homo sapiens, UniProt P00519)
Experimental: as §1

[3] = biological target: Receptor protein-tyrosine kinase (Homo sapiens, UniProt Q504U8)
Experimental: as §1

Chain of Tyrosine-protein kinase ABL1 (P00519 whole entry): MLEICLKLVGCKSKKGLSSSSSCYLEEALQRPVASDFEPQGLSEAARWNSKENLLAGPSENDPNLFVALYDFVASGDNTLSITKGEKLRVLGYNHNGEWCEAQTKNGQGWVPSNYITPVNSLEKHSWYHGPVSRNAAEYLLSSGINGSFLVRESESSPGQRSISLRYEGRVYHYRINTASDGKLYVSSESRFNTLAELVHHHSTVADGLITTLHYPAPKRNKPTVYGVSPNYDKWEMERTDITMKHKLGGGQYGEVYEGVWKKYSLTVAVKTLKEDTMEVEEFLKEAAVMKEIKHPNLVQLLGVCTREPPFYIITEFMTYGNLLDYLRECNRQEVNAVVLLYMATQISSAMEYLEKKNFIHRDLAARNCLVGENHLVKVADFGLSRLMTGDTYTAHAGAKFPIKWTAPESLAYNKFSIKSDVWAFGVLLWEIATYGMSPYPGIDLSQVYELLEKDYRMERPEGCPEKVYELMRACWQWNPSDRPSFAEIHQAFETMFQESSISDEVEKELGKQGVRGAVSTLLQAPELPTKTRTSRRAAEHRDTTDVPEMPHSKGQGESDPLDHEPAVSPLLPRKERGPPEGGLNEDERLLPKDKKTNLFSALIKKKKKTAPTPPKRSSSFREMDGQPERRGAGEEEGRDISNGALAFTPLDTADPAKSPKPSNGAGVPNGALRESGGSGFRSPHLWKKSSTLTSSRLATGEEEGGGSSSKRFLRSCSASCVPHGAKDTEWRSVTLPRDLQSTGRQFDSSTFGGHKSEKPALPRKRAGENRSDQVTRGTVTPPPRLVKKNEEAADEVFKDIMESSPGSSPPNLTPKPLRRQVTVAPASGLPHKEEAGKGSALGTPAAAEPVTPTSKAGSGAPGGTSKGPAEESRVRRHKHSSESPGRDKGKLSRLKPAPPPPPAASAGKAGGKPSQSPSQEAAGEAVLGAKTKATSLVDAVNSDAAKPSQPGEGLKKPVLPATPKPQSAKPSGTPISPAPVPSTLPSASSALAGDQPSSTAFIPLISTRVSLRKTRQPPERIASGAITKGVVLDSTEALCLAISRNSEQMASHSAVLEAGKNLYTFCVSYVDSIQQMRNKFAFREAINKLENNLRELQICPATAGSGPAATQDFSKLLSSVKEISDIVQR
Chain of Vascular endothelial growth factor receptor 2 (P35968 whole entry): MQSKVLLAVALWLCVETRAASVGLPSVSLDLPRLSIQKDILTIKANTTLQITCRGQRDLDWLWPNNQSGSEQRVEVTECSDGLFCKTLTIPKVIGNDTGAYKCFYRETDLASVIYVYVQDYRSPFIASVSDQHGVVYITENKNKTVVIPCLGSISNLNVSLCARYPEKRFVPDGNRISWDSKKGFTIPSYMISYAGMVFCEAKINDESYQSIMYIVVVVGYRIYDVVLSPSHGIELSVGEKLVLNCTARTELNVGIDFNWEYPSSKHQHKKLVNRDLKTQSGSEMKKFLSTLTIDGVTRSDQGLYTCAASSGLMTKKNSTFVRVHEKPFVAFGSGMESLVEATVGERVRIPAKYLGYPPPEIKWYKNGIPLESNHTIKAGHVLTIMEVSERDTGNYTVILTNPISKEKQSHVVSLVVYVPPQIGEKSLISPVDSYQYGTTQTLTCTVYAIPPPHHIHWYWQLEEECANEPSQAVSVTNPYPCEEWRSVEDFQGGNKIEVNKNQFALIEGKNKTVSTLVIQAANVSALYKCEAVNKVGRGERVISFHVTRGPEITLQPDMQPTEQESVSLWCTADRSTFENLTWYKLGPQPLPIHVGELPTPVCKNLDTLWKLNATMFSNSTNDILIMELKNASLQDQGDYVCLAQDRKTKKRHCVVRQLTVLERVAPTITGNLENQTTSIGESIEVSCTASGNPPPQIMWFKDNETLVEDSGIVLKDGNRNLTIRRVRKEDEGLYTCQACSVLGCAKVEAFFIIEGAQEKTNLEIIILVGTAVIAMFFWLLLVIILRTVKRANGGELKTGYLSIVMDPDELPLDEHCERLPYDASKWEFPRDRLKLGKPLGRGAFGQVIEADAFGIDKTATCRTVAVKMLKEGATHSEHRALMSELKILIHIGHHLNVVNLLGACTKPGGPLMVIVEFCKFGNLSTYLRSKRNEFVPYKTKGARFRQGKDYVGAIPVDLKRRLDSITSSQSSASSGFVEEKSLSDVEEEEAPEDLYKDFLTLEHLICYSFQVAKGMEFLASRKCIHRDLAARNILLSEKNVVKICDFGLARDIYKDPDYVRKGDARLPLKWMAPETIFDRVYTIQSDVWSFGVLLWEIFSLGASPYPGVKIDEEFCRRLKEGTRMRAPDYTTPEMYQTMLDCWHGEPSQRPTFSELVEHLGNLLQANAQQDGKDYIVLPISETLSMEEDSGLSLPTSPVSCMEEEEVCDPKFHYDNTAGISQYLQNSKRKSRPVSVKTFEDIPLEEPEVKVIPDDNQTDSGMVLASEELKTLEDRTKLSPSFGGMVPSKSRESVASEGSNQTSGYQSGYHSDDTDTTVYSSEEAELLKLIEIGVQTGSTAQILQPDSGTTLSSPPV
Chain of Receptor protein-tyrosine kinase (Q504U8 whole entry): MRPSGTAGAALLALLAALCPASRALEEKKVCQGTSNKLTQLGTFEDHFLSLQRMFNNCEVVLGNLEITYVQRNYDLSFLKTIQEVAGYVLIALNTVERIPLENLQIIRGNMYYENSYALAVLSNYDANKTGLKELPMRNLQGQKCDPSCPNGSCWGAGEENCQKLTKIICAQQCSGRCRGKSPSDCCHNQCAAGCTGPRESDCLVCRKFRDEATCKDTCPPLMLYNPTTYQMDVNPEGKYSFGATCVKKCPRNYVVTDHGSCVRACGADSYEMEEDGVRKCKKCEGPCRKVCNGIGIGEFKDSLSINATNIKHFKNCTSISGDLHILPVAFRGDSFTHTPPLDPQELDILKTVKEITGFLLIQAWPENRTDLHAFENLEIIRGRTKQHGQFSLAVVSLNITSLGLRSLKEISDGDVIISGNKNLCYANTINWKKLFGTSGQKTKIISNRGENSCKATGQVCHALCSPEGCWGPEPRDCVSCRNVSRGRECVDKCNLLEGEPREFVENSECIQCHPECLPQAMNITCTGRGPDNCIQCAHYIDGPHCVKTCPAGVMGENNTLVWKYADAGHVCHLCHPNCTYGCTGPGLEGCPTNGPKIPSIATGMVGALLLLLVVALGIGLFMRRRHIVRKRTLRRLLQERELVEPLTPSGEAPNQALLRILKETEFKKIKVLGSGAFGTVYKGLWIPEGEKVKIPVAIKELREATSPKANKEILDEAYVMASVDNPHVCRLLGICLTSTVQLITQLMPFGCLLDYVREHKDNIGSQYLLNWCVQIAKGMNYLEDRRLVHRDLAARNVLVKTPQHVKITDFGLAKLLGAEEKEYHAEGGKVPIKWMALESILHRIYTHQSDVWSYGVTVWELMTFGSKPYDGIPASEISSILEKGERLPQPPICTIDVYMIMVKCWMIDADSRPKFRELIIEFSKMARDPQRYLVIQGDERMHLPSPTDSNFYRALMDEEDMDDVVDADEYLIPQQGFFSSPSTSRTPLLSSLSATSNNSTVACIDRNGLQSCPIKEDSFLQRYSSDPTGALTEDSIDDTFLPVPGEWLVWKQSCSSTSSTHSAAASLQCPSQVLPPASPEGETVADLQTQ

SMILES | IC50 [1] [µM] | IC50 [2] [µM] | IC50 [3] [µM]
Cc1cc(C)nc(NS(=O)(=O)c2ccc(Nc3nccc(Nc4ccc5c(C)n(C)nc5c4)n3)cc2)n1 [4-((4-((2,3-dimethyl-2H-indazole-6-yl)amino)pyrimidin-2-yl)amino)-N-(4,6-dimethylpyrimidin-2-yl)benzenesulfonamide (P1e)] | 0.12 | 0.36 | 
Cc1cc(NS(=O)(=O)c2ccc(Nc3nccc(N(C)c4ccc5c(C)n(C)nc5c4)n3)cc2)no1 [4-((4-((2,3-dimethyl-2H-indazole-6-yl)(methyl)amino)pyrimidin-2-yl)amino)-N-(5-methylisoxazol-3-yl)benzenesulfonamide (P2f)] | 0.65 | 0.32 | 
Cc1cc(NS(=O)(=O)c2ccc(Nc3nccc(Nc4ccc5c(C)n(C)nc5c4)n3)cc2)no1 [4-((4-((2,3-dimethyl-2H-indazole-6-yl)amino)pyrimidin-2-yl)amino)-N-(5-methylisoxazol-3-yl) benzenesulfonamide (P1f)] | 1.63 | 2.18 | 
Cc1c2ccc(Nc3ccnc(Nc4ccc(S(=O)(=O)NC(=N)N)cc4)n3)cc2nn1C [N-carbamimidoyl-4-((4-((2,3-dimethyl-2H-indazole-6-yl)amino)pyrimidin-2-yl)amino) benzenesulfonamide (P1g)] | 1.34 | 0.93 | 
Cc1ccnc(NS(=O)(=O)c2ccc(Nc3nccc(Nc4ccc5c(C)n(C)nc5c4)n3)cc2)n1 [4-((4-((2,3-dimethyl-2H-indazole-6-yl)amino)pyrimidin-2-yl)amino)-N-(4-methylpyrimidin-2-yl) benzenesulfonamide (P1d)] | 0.16 | 0.28 | 
Cc1c2ccc(N(C)c3ccnc(Nc4ccc(S(=O)(=O)NC(=N)N)cc4)n3)cc2nn1C [N-carbamimidoyl-4-((4-((2,3-dimethyl-2H-indazole-6-yl)(methyl)amino)pyrimidin-2-yl)amino) benzenesulfonamide (P2g)] | 0.72 | 0.36 | 1.37

Compounds with a lower IC50 [1], results first:

IC50 [1] [µM] | IC50 [2] [µM] | IC50 [3] [µM] | SMILES
0.034 | 0.46 |  | Cc1c2ccc(Nc3ccnc(Nc4ccc(S(=O)(=O)Nc5ncccn5)cc4)n3)cc2nn1C [4-((4-((2,3-dimethyl-2H-indazole-6-yl)amino)pyrimidin-2-yl)amino)-N-(pyrimidin-2-yl) benzenesulfonamide (P1c)]
0.029 | 0.12 |  | Cc1c2ccc(N(C)c3ccnc(Nc4ccc(S(=O)(=O)Nc5ncccn5)cc4)n3)cc2nn1C [4-((4-((2,3-dimethyl-2H-indazole-6-yl)(methyl)amino)pyrimidin-2-yl)amino)-N-(pyrimidin-2-yl) benzenesulfonamide (P2c)]
0.025 | 0.062 |  | Cc1ccnc(NS(=O)(=O)c2ccc(Nc3nccc(N(C)c4ccc5c(C)n(C)nc5c4)n3)cc2)n1 [4-((4-((2,3-dimethyl-2H-indazole-6-yl)(methyl)amino)pyrimidin-2-yl)amino)-N-(4-methylpyrimidin-2-yl)benzenesulfonamide (P2d)]
0.012 | 0.022 |  | Cc1cc(C)nc(NS(=O)(=O)c2ccc(Nc3nccc(N(C)c4ccc5c(C)n(C)nc5c4)n3)cc2)n1 [4-((4-((2,3-dimethyl-2H-indazole-6-yl)(methyl)amino)pyrimidin-2-yl)amino)-N-(4,6-dimethylpyrimidin-2-yl)benzenesulfonamide (P2e)]
